Common to all, as to assay: inhibition of tumour cell growth, NCI panel, 48 h
In test [1] the test system is CAKI-1 renal.
The subject of test [2] is OVCAR-3 ovarian.
Test [3] deals with NCI-H522 lung.
The test system of test [4] is UACC-257 melanoma.
In test [5] the test system is OVCAR-4 ovarian.
Test [6] has as its system NCI/ADR-RES ovarian.
Test [7] concerns A549 NSCLC.
The test system of test [8] is PC-3 prostate.
The subject of test [9] is SNB-75 CNS.
The subject of test [10] is A498 renal.

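Tested at 5 concentrations; 48 h exposure; 96-well plates; endpoints linearly interpolated, else capped at highest concentration. GI50 is the concentration that inhibits growth by half. TGI marks complete inhibition of growth.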

On to `C/C(=N\Nc1ccc2ccccc2n1)c1ccccn1`, for which the TGI in test [1] was 0.59 µM; in [2], 4.24 µM; in test [3], 0.21 µM; in test [4], 0.326 µM; in test [5], 33.5 µM; in test [6] it was 7.19 µM. For the same compound, the TGI came to 11.1 µM in test [7], 7.23 µM in [8], 17.6 µM in test [9] and 2.48 µM in [10]. The GI50 in test [2] was under 0.0192 µM; in test [4] it was 0.0579 µM; in [5] it was under 0.0204 µM; in [6] it was 0.0653 µM; in [7], 0.0841 µM; in test [9], 0.123 µM. For the same compound, the GI50 in test [10] is 0.239 µM.
In the case of `COc1cc2nc(N3CCCC3)nc(NCC3CCCCC3)c2cc1OC`, the GI50 was 1.34 µM in test [1]; 1.55 µM in test [2]; 1.56 µM in test [3]; 0.364 µM in test [4]; 1.25 µM in test [5]; 1.51 µM in test [6]. The GI50 in test [7] is 1.52 µM; in test [8] it was 1.13 µM; in [9], 1.47 µM; in test [10], 1.11 µM. Also, the TGI came out at 2.64 µM in [1]; 2.99 µM in test [2]; 3.29 µM in test [3]; 1.36 µM in test [4]; 2.71 µM in test [5]; 3.47 µM in [6]. The TGI stood at 3.25 µM in test [7], 2.83 µM in test [8], 2.81 µM in [9] and 2.47 µM in test [10].
In the case of `N/C(=N\N=C\c1ccc(-c2ccccc2)cc1)N[N+](=O)[O-]`, the GI50 in [1] was 4.17 µM; in [2], 1.67 µM; in [3] it was 2.13 µM; in test [4], over 100 µM; in [5], 10.8 µM; in [6] it was 1.46 µM. For the same compound, the GI50 in [7] was 2.75 µM; in [8], 3.81 µM; in test [9], 1.06 µM; in [10], 0.418 µM. The TGI in [1] was over 100 µM; in test [2], 9.5 µM; in test [3], over 100 µM; in test [4], over 100 µM; in test [5], over 100 µM; in test [6], over 86.1 µM. The TGI in test [7] is over 100 µM; in test [8], over 100 µM; in [9] it was 6.62 µM; in test [10] it was 7.58 µM.
`O=C(N/N=C/c1ccc2c(c1)CCC2)c1ccccc1O`: the TGI in test [1] came out at 74.5 µM; in test [2], 41.5 µM; in [3] it was 61.1 µM; in test [4], 95.1 µM; in test [5], 60.2 µM; in test [6], 73.8 µM. The TGI was 57.5 µM in test [7], 53.4 µM in [8], 38 µM in test [9] and 36.8 µM in test [10].
With `Nc1ncnc2[nH]ncc12`, the GI50 is 0.11 µM in test [1]; 0.863 µM in [2]; 0.649 µM in [3]; 0.983 µM in test [4]; 0.277 µM in test [5]; 0.388 µM in [6]. In addition, the GI50 in [7] was 1.72 µM; in test [8], 0.526 µM; in test [9], 2.1 µM; in test [10], 0.853 µM. The TGI in test [1] was 1.44 µM; in [2], 4.38 µM; in test [3], 9.48 µM; in test [4] it was 14.2 µM; in test [5] it was 37.9 µM; in test [6], 12.2 µM. Also, the TGI in test [7] was over 66.8 µM; in test [8] it was over 55.7 µM; in [9], over 100 µM; in test [10] it was 20.4 µM.
For `CC(C)(C)c1n[nH]c(=S)n(/N=C/c2ccc(F)c(Oc3ccccc3)c2)c1=O`, the GI50 is 28.5 µM in test [1]; 28.3 µM in test [2]; over 100 µM in test [3]; 24.2 µM in [4]; 23.8 µM in test [5]; 35.1 µM in [6]. Further, the GI50 in test [7] is 33.9 µM; in test [8], 38.6 µM; in [9], 32.5 µM; in test [10], 27.8 µM. Further, the TGI is 68.9 µM in test [1]; 95.7 µM in [2]; over 100 µM in test [3]; 68.4 µM in test [4]; 96.9 µM in test [5]; over 100 µM in test [6]. In addition, the TGI in test [7] was over 100 µM; in test [8], over 100 µM; in test [9] it was over 100 µM; in [10] it was 69.7 µM.
For `C[C@]12CC[C@H]3[C@@H](CCC4=CC(=O)CC[C@@H]43)[C@@H]1CC[C@@H]2OC(=O)CCc1ccccc1`, the GI50 in [1] was 12 µM; in [2], 15.8 µM; in test [3], 19.4 µM; in test [4] it was 24.6 µM; in [5], 18.8 µM; in test [6], 19.1 µM. For the same compound, the GI50 was 25.1 µM in [7], 24.4 µM in test [8], 29 µM in [9] and 16.2 µM in test [10]. Moreover, the TGI is 26.2 µM in test [1]; 30 µM in test [2]; 41.7 µM in [3]; 59.5 µM in [4]; 40.4 µM in [5]; 40.9 µM in test [6]. Also, the TGI is over 73.7 µM in [7], over 84.2 µM in [8], over 100 µM in test [9] and 30.8 µM in [10].
In the case of `COc1ccc(-c2n[nH]nc2-c2cc(OC)c3c(c2OC)OCO3)cc1`, the GI50 in test [1] was 0.839 µM; in test [2], 0.378 µM; in [3], 0.486 µM; in [4], 2.8 µM; in test [5] it was 4.81 µM; in test [6] it was 0.368 µM. Moreover, the GI50 was 0.7 µM in test [7], 1.87 µM in test [8], 0.573 µM in [9] and 0.312 µM in [10]. In addition, the TGI in [1] was over 60.1 µM; in test [2], 2.71 µM; in [3], 3.67 µM; in test [4], over 100 µM; in test [5], over 76.3 µM; in test [7] it was over 58.8 µM. For the same compound, the TGI in test [8] is over 100 µM; in [9] it was 3.96 µM; in [10], 6.38 µM.
`COc1ccc(-c2cc(-c3ccccc3)nc(SCCCC(=O)NO)n2)cc1`: the GI50 was 0.335 µM in test [1]; 1.2 µM in test [2]; 0.808 µM in test [3]; 1.6 µM in test [4]; 1.26 µM in test [5]; 0.267 µM in test [6]. For the same compound, the GI50 was 1.74 µM in test [7], 1.61 µM in [8], 0.964 µM in test [9] and 0.816 µM in [10]. In addition, the TGI in test [1] was 1.45 µM; in test [2], 5.17 µM; in test [3], 4.32 µM; in [4], 8.34 µM; in test [5], 9.01 µM; in test [6] it was 1.6 µM. In addition, the TGI in test [7] worked out at 8.45 µM; in test [8], 8.39 µM; in [9] it was 4.95 µM; in test [10], 2.53 µM.
Take `COC(=O)C(Cc1ccccc1)NC(=O)NC(=O)NC(=O)CI` (stereo unspecified): the GI50 in [1] was 2 µM; in test [2], 2.97 µM; in [3], 1.61 µM; in test [4] it was 13.2 µM; in [5] it was 4.41 µM; in test [6], 19.8 µM. Moreover, the GI50 was 20.2 µM in test [7], 17.3 µM in test [8], 16.2 µM in test [9] and 18.4 µM in [10]. For the same compound, the TGI in [1] was determined as 4.08 µM; in [2] it was 8.89 µM; in test [3], 3.38 µM; in test [4], 26.5 µM; in test [5], 24.4 µM; in [6], 84.3 µM. The TGI is 38.9 µM in test [7], 33.1 µM in test [8], 36.7 µM in test [9] and 33.2 µM in [10].
For `CC1=C(CCC(C)N(C)Cc2ccc(OCCCN3CCCC3)cc2)C(C)(C)CCC1` (stereo unspecified), the GI50 is 11.3 µM in [1]; 5.72 µM in test [2]; 2.33 µM in [3]; 2.25 µM in test [4]; 7.76 µM in [5]; 10.4 µM in [6]. Moreover, the GI50 is 6.48 µM in [7], 3.28 µM in test [8], 1.58 µM in test [9] and 10.4 µM in [10]. In addition, the TGI was 24.3 µM in [1]; 19.3 µM in test [2]; 4.99 µM in test [3]; 4.12 µM in test [4]; 21.4 µM in [5]; 25 µM in test [6]. In addition, the TGI amounted to 20.5 µM in [7], 14.1 µM in test [8], 3.92 µM in [9] and 22.7 µM in test [10].
For `CCN=C1C=CC(=C(c2ccc(N)cc2)c2ccc(N(CC)CC)c(C)c2)C=C1`, the GI50 was 1.92 µM in test [1]; 0.368 µM in test [2]; 0.31 µM in [3]; 0.324 µM in test [4]; 0.298 µM in [5]; 2.74 µM in [6]. Further, the GI50 in [7] is 0.337 µM; in test [8] it was 0.205 µM; in [9], 0.204 µM; in [10], 0.24 µM. Also, the TGI in test [1] was 8.15 µM; in [2] it was 1.26 µM; in test [3], 1.62 µM; in test [4] it was 1.69 µM; in test [5] it was 1.66 µM; in [6], over 100 µM. The TGI came to 12.9 µM in test [7], 4.33 µM in test [8], 0.65 µM in test [9] and 0.931 µM in [10].
Regarding `N#C/C(=C\c1c(-c2ccccc2)[nH]c2ccccc12)S(=O)(=O)c1ccccc1`, the GI50 in test [1] was 5.48 µM; in [2], 1.14 µM; in [3] it was 4.51 µM; in test [4], 17.9 µM; in test [5], 5.47 µM; in test [6] it was 1.06 µM. The GI50 was 3.74 µM in test [7], 3.34 µM in [8], 1.67 µM in [9] and 7.6 µM in [10]. For the same compound, the TGI was over 63 µM in [1]; 4.41 µM in [2]; 25.5 µM in test [3]; 56.2 µM in test [4]; over 100 µM in [5]; 43.4 µM in test [6]. The TGI in test [7] was over 100 µM; in test [8] it was over 53.9 µM; in [9] it was 29.4 µM; in [10] it was over 58.7 µM.
Take `N=C(N)c1ccc(N2CCCN(c3ccc(C(=N)N)cc3)CC2)cc1`: the GI50 is 99.7 µM in test [1]; 72.4 µM in test [2]; 81.9 µM in test [3]; over 100 µM in test [4]; over 100 µM in test [5]; over 100 µM in test [6]. Further, the GI50 in [7] is 40.5 µM; in [8] it was over 100 µM; in test [9] it was over 100 µM; in test [10] it was 1.76 µM. In addition, the TGI in [1], in test [2], in [3], in test [4], in test [5] and in test [6] was over 100 µM each time. In addition, the TGI in test [7] is over 100 µM; in test [8], over 100 µM; in test [9], over 100 µM; in test [10], 9.62 µM.
